Test results published in patent publication EP2545917B1, “NOVEL EP4 AGONIST” (Kaken Pharmaceutical Co., Ltd., priority 2010, dated 2011).

Assays:
intraocular pressure = assay: Effect on intraocular pressure in rabbits; format: in vivo, Japanese white rabbits; settings: 0.01 w/v% solution, 50 µL/eye
Experimental: Japanese white rabbits (male, 10 weeks old, BIOTEC Co., Ltd.) were purchased, acclimated for 1 week and used for the study. Compound F solution (0.01 w/v%) was instilled once into the cornea of both eyes at a volume of 50 µL/eye with a micropipette. The intraocular pressure of the right eye was measured and the local irritative effect on the eye was evaluated using the left eye. After surface anesthesia with oxybupranol (Benoxil 0.4% instillation solution), the intraocular pressure was measured before ocular instillation ) and 1, 2, 3, 4, 6 and 8 hr after the instillation using a pneumatonometer (Alcon Ltd.). In addition, the local irritative effect on the eye was evaluated by scoring conjunctival congestion, conjunctival edema, cornea opacity, iris congestion, excretion and eye closure performance. For the evaluation, phosphate buffer was used for the solvent control group, and isopropyl unoprostone (Rescula eye drops, Santen Pharmaceutical Co., Ltd.) was used for comparison. Six animals were used for each group and the results were expressed as average.

[1] = system: dextran sodium sulfate-induced colitis; assay: Prophylactic effect on dextran sodium sulfate-induced colitis in rats; format: in vivo; settings: SD rats, 5.5 w/v% DSS, oral 1 mg/kg and 3 mg/kg once a day
Experimental: Prophylactic effect of compound F on colitis was also studied in rats. Male SD rats, 7 weeks old, body weight around 210 g - 240 g (Charles River) were purchased, acclimated for 1 week and used for the study. Except the normal group, the rats were allowed to freely drink a DSS (MP Biochemicals, M.W. 36,000-50,000, Lot No. 4556J) solution prepared to 5.5 w/v% for 8 days to induce colitis. Compound F at doses of 0.3, 1 and 3 mg/kg was orally administered once a day, daily, from one day before the start day of DSS drinking to one day before autopsy (day 7). To the control group was orally administered a solvent (1 vol% ethanol solution) at 5 mL/kg.
On day 8 from the start of DSS drinking, 1.25 w/v% Evans blue solution was administered at 0.2 mL/100 g from the tail vein. After 30 min, the rats were subjected to laparotomy under ether anesthesia and exsanguinated to death. Thereafter, the large intestine was dissected from just below the cecum to the anus, and the length was measured with a scale. […] The next day, the dry weight was measured, formamide (2 mL) was added, the dye was extracted at 50°C overnight, and the level thereof was measured at 620 nm. A standard curve was prepared using an Evans blue standard solution, and the amount (mg) of Evans blue in 1 g of the colonic tissue was calculated to estimate degree of colonic tissue injury. […]

[2] = system: indomethacin-induced small intestinal injury; assay: Indomethacin-induced small intestinal injury model in rats; format: in vivo, SD rats
Experimental: Male SD rats, 7 weeks old (Charles River) were purchased, acclimated for 1 week and used for the study. The rats were grouped based on the body weight and subcutaneously ) administered with indomethacin (SIGMA, Lot No. 19F0018) at 15 mg/5 mL/kg to all groups to induce small intestinal injury. Compound F at doses of 0.01, 0.1 and 1 mg/kg was orally administered at a volume of 5 mL/kg 30 min before and 6 hr after the subcutaneous administration of indomethacin. To the control group was orally administered a solvent (1 vol% ethanol solution) at 5 mL/kg in the same manner. Eight animals were used for each group.
The rats were intravenously administered with 2 mL of 10 mg/mL Evans blue solution under ether anesthesia 23.5 hr after the indomethacin administration. After 30 min, the rats were bled to death from the abdominal aorta and caudal vena cava under ether anesthesia and the small intestine was isolated. The isolated small intestine was filled with an adequate amount (about 35 mL) of 2 vol% neutral formalin solution, and fixed for about 15 min. Thereafter, the total small intestine was incised along the mesenteric attachment site, and extended on a vinyl chloride board. The length and width of each ulcer were measured under a stereomicroscope, the area was calculated, and the sum thereof was taken as the total ulcer area.

Cc1cccc([C@@H](C)[C@H](O)/C=C/[C@@H]2[C@@H]3[C@H](C[C@H]2O)O/C(=C\CCCc2nnn[nH]2)C3(F)F)c1 [Compound F, 4-[(Z)-(1S,5R,6R,7R)-6-[(1E,3R,4R)-3-hydroxy-4-(m-tolyl)-1-pentenyl]-7-hydroxy-2-oxa-4,4-difluoro-bicyclo[3.3.0]octan-3-ylidene]-1-(tetrazol-5-yl)butane]
decrease in intraocular pressure (intraocular pressure; 1 hr after the instillation): 6.9 mmHg | decrease in intraocular pressure (intraocular pressure; 2 hr after the instillation): 9.3 mmHg | decrease in intraocular pressure (intraocular pressure; 6 hr after the instillation): 6.6 mmHg | effect on stool score, colonic tissue injury and shortening of the large intestine [1]: a suppressive tendency or significant suppressive effect on these events | effect on total ulcer area in the small intestine ([2]; oral 1 mg/kg 30 min before and 6 hr after indomethacin): completely reduced the area | effect on total ulcer area in the small intestine ([2]; oral 0.01, 0.1 and 1 mg/kg 30 min before and 6 hr after indomethacin): significantly reduced the ulcer area in a dose-dependent manner from a dose of 0.1 mg/kg administration
